Data: patent publication US20240368173A1, “TRICYCLIC GPR65 MODULATORS” (PATHIOS THERAPEUTICS LIMITED, priority 2021, published 2024)

Each compound was assayed against human recombinant GPR65 (Homo sapiens, UniProt Q8IYL9) (assay: Human GPR65 cAMP HTRF antagonist assay). Details: not given.
Chain of human recombinant GPR65 (Q8IYL9 whole entry): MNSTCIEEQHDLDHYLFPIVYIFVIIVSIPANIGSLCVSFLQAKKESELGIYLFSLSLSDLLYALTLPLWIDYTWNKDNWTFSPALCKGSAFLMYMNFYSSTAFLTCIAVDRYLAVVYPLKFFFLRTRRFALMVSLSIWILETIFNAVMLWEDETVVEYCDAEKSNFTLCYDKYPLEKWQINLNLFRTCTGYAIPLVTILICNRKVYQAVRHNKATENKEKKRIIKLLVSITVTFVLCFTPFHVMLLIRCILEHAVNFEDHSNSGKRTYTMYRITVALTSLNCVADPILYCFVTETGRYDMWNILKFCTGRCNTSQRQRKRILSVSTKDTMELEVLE
Type: cell-based
Outline: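 1321N1 astrocytoma cells stably expressing hrGPR65, with IBMX and EDTA, were preincubated with compound 30 min at room temperature, then acid-activated at assay pH 7.2 (control pH 7.9) for 30 min. cAMP read by HTRF (665/620 nm ratio); IC50 from 4-parameter fit normalised to high/low controls.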
Work on `O=C(Nc1cc(Cl)c(OC2CCC2)cc1F)N1[C@H]2CC[C@@H]1c1c[nH]c(=O)cc1C2` [Compound 81, (6S,9R)-N-(5-Chloro-4-cyclobutoxy-2-fluorophenyl)-3-oxo-3,5,6,7,8,9-hexahydro-2H-6,9-epiminocyclohepta[c]pyridine-10-carboxamide] yielded an IC50 of under 500 nM.
`O=C(Nc1cc(Br)c(C(F)(F)F)cc1F)N1[C@H]2CC[C@@H]1c1c[nH]c(=O)nc1C2` [Compound 28, (5R,8S)-N-(5-Bromo-2-fluoro-4-(trifluoromethyl)phenyl)-2-oxo-3,5,6,7,8,9-hexahydro-2H-5,8-epiminocyclohepta[d]pyrimidine-10-carboxamide] showed an IC50 of under 500 nM.
In the case of `CO[C@H]1C[C@H](Oc2ccc(-c3cc(F)c(NC(=O)N4[C@H]5CC[C@@H]4c4c[nH]c(=O)cc4C5)cc3Cl)cn2)C1` [Compound 317, (6S,9R)-N-(5-Chloro-2-fluoro-4-(6-((1r,3R)-3-methoxycyclobutoxy)pyridin-3-yl)phenyl)-3-oxo-3,5,6,7,8,9-hexahydro-2H-6,9-epiminocyclohepta[c]pyridine-10-carboxamide], the IC50 is reported as under 500 nM.
`O=C(Nc1cc(Cl)c(-c2cnc(F)c(F)c2)cc1F)N1[C@H]2CC[C@@H]1c1ccnc(F)c1C2` [Compound 262, (5R,8S)-N-(5-chloro-4-(5,6-difluoropyridin-3-yl)-2-fluorophenyl)-1-fluoro-6,7,8,9-tetrahydro-5H-5,8-epiminocyclohepta[c]pyridine-10-carboxamide] showed an IC50 of under 500 nM.
With `O=C(Nc1cc(Cl)c(-c2cnc3nsnc3c2)cc1F)N1[C@H]2CC[C@@H]1c1n[nH]c(=O)cc1C2` [Compound 277, (6S,9R)-N-(4-([1,2,5]Thiadiazolo[3,4-b]pyridin-6-yl)-5-chloro-2-fluorophenyl)-3-oxo-3,5,6,7,8,9-hexahydro-2H-6,9-epiminocyclohepta[c]pyridazine-10-carboxamide] the IC50 was under 500 nM.
Compound `O=C(Nc1ccc(C(F)(F)F)c(Br)c1)N1[C@@H]2CC[C@H]1c1n[nH]c(=O)cc1C2` [Compound 30, (6R,9S)-N-(3-Bromo-4-(trifluoromethyl)phenyl)-3-oxo-3,5,6,7,8,9-hexahydro-2H-6,9-epiminocyclohepta[c]pyridazine-10-carboxamide] has an IC50 of over 5000 nM.
`O=C(Nc1cc(Cl)c(-c2ccc(OC3CC3)nc2)cc1F)N1[C@H]2CC[C@@H]1c1n[nH]c(=O)cc1C2` [Compound 221, (6S,9R)-N-(5-Chloro-4-(6-cyclopropoxypyridin-3-yl)-2-fluorophenyl)-3-oxo-3,5,6,7,8,9-hexahydro-2H-6,9-epiminocyclohepta[c]pyridazine-10-carboxamide] was tested, and the IC50 was under 500 nM.
`O=C(Nc1ccc(Cl)c(Br)c1)N1[C@H]2CC[C@@H]1c1n[nH]c(=O)cc1C2` [Compound 49, (6S,9R)-N-(3-Bromo-4-chlorophenyl)-3-oxo-3,5,6,7,8,9-hexahydro-2H-6,9-epiminocyclohepta[c]pyridazine-10-carboxamide] showed an IC50 of under 500 nM.
Work on `O=C(Nc1cc(F)c(-c2ccc(F)nc2)cc1F)N1[C@H]2CC[C@@H]1c1n[nH]c(=O)cc1C2` [Compound 244, (6S,9R)-N-(2,5-Difluoro-4-(6-fluoropyridin-3-yl)phenyl)-3-oxo-3,5,6,7,8,9-hexahydro-2H-6,9-epiminocyclohepta[c]pyridazine-10-carboxamide] yielded an IC50 of under 500 nM.
Compound `O=C(Nc1cc(F)c(NC(=O)N2[C@H]3CC[C@@H]2c2n[nH]c(=O)cc2C3)cc1Cl)c1ccccc1` [Compound 236, (6S,9R)—N-(4-benzamido-5-chloro-2-fluorophenyl)-3-oxo-3,5,6,7,8,9-hexahydro-2H-6,9-epiminocyclohepta[c]pyridazine-10-carboxamide] has an IC50 of 500 to 5000 nM.
With `O=C(Nc1cc(Cl)c(-c2ccc(OC(C(F)F)C(F)F)nc2)cc1F)N1[C@H]2CC[C@@H]1c1n[nH]c(=O)cc1C2` [Compound 331, (6S,9R)-N-(5-Chloro-2-fluoro-4-(6-((1,1,3,3-tetrafluoropropan-2-yl)oxy)pyridin-3-yl)phenyl)-3-oxo-3,5,6,7,8,9-hexahydro-2H-6,9-epiminocyclohepta[c]pyridazine-10-carboxamide] the IC50 was under 500 nM.
Compound `O=C(Nc1cc(Cl)c(-c2cnc(OCC(F)(F)F)c(F)c2)cc1F)N1[C@H]2CC[C@@H]1c1n[nH]c(=O)cc1C2` [Compound 328, (6S,9R)-N-(5-Chloro-2-fluoro-4-(5-fluoro-6-(2,2,2-trifluoroethoxy)pyridin-3-yl)phenyl)-3-oxo-3,5,6,7,8,9-hexahydro-2H-6,9-epiminocyclohepta[c]pyridazine-10-carboxamide] has an IC50 of under 500 nM.
With `O=C(Nc1cc(Cl)c(-c2ccc3nonc3c2)cc1F)N1[C@@H]2CC[C@H]1C(F)(F)c1c2ccnc1F` [Compound 330, (5R,8S)-N-(4-(Benzo[c][1,2,5]-oxadiazol-5-yl)-5-chloro-2-fluorophenyl)-1,9,9-trifluoro-6,7,8,9-tetrahydro-5H-5,8-epiminocyclohepta[c]pyridine-10-carboxamide] the IC50 was under 500 nM.
Compound `O=C(Nc1cc(Cl)c(C(F)(F)F)cc1F)N1C2CCC1C(F)(F)c1c2ccnc1F` (racemic) [Compound 183, (±)—N-(5-Chloro-2-fluoro-4-(trifluoromethyl)phenyl)-1,9,9-trifluoro-6,7,8,9-tetrahydro-5H-5,8-epiminocyclohepta[c]pyridine-10-carboxamide] has an IC50 of under 500 nM.
`O=C(Nc1cc(Cl)c(-c2cc3nonc3cc2F)cc1F)N1[C@H]2CC[C@@H]1c1n[nH]c(=O)cc1C2` [Compound 326, (6S,9R)-N-(5-Chloro-2-fluoro-4-(6-fluorobenzo[c][1,2,5]oxadiazol-5-yl)phenyl)-3-oxo-3,5,6,7,8,9-hexahydro-2H-6,9-epiminocyclohepta[c]pyridazine-10-carboxamide] gave an IC50 of under 500 nM.
Compound `O=C(Nc1ccc(OC(F)(F)F)c(Cl)c1)N1C2CCC1c1n[nH]c(=O)cc1C2` (racemic) [Compound 9, (±)-N-(3-Chloro-4-(trifluoromethoxy)phenyl)-3-oxo-3,5,6,7,8,9-hexahydro-2H-6,9-epiminocyclohepta[c]pyridazine-10-carboxamide] has an IC50 of under 500 nM.
In the case of `O=C(Nc1cc(Br)c(C(F)(F)F)cc1F)N1[C@H]2CC[C@@H]1c1n[nH]c(=O)cc1C2` [Compound 35, (6S,9R)-N-(5-Bromo-2-fluoro-4-(trifluoromethyl)phenyl)-3-oxo-3,5,6,7,8,9-hexahydro-2H-6,9-epiminocyclohepta[c]pyridazine-10-carboxamide], the IC50 is reported as under 500 nM.
For `O=C(Nc1cc(Cl)c(-c2ccc(OC3COC3)nc2)cc1F)N1[C@H]2CC[C@@H]1c1n[nH]c(=O)cc1C2` [Compound 275, (6S,9R)-N-(5-Chloro-2-fluoro-4-(6-(oxetan-3-yloxy)pyridin-3-yl)phenyl)-3-oxo-3,5,6,7,8,9-hexahydro-2H-6,9-epiminocyclohepta[c]pyridazine-10-carboxamide], the IC50 was under 500 nM.
Compound `O=C(Nc1cc(-c2cncc(F)c2)c(C(F)(F)F)cc1F)N1[C@H]2CC[C@@H]1c1n[nH]c(=O)cc1C2` [Compound 257, (6S,9R)-N-(2-Fluoro-5-(5-fluoropyridin-3-yl)-4-(trifluoromethyl)phenyl)-3-oxo-3,5,6,7,8,9-hexahydro-2H-6,9-epiminocyclohepta[c]pyridazine-10-carboxamide] has an IC50 of under 500 nM.
`O=C(Nc1cc(Cl)c(-c2ccc3nonc3c2)cn1)N1[C@H]2CC[C@@H]1c1ccnc(F)c1C2` [Compound 339, (5R,8S)-N-(5-(Benzo[c][1,2,5]oxadiazol-5-yl)-4-chloropyridin-2-yl)-1-fluoro-6,7,8,9-tetrahydro-5H-5,8-epiminocyclohepta[c]pyridine-10-carboxamide] gave an IC50 of under 500 nM.

Same assay, conditions: 1321N1-hrGPR65 cells, cAMP HTRF, assay pH 7.2; read-out: hGPR65 IC50 (Activity of selected compounds according to the invention)
In the case of `O=C1NCc2cc(-c3cc(F)c(NC(=O)N4[C@H]5CC[C@@H]4c4n[nH]c(=O)cc4C5)cc3Cl)ccc21` [Compound 142, (6S,9R)-N-(5-Chloro-2-fluoro-4-(1-oxoisoindolin-5-yl)phenyl)-3-oxo-3,5,6,7,8,9-hexahydro-2H-6,9-epiminocyclohepta[c]pyridazine-10-carboxamide], the IC50 is reported as over 5000 nM.
With `CN(C)Cc1cccc(-c2cc(F)c(NC(=O)N3[C@H]4CC[C@@H]3c3n[nH]c(=O)cc3C4)cc2Cl)c1` [Compound 133, (6S,9R)-N-(2-Chloro-3′-((dimethylamino)methyl)-5-fluoro-[1,1′-biphenyl]-4-yl)-3-oxo-3,5,6,7,8,9-hexahydro-2H-6,9-epiminocyclohepta[c]pyridazine-10-carboxamide] the IC50 was 500 to 5000 nM.
Work on `Cc1n[nH]c(C)c1-c1cc(F)c(NC(=O)N2[C@H]3CC[C@@H]2c2n[nH]c(=O)cc2C3)cc1Cl` [Compound 149, (6S,9R)-N-(5-Chloro-4-(3,5-dimethyl-1H-pyrazol-4-yl)-2-fluorophenyl)-3-oxo-3,5,6,7,8,9-hexahydro-2H-6,9-epiminocyclohepta[c]pyridazine-10-carboxamide] yielded an IC50 of 500 to 5000 nM.
Work on `Cn1nc2c(cc1=O)CC1CCC2N1C(=O)Nc1cc(Cl)c(Cl)cc1F` (racemic) [Compound 83, (±)-N-(4,5-Dichloro-2-fluorophenyl)-2-methyl-3-oxo-3,5,6,7,8,9-hexahydro-2H-6,9-epiminocyclohepta[c]pyridazine-10-carboxamide] yielded an IC50 of 500 to 5000 nM.
`O=C(Nc1cc(Cl)c(C(F)(F)F)cc1F)N1C2CC[C@@H]1c1ccnc(F)c1C2O` (mixture of isomers) [Compound 204, (±)—(R)—N-(5-chloro-2-fluoro-4-(trifluoromethyl)phenyl)-1-fluoro-9-hydroxy-6,7,8,9-tetrahydro-5H-5,8-epiminocyclohepta[c]pyridine-10-carboxamide] gave an IC50 of 500 to 5000 nM.
With `O=C(Nc1cc(Br)c(C(F)(F)F)cc1F)N1[C@@H]2CC[C@H]1c1c[nH]c(=O)nc1C2` [Compound 29, (5S,8R)-N-(5-Bromo-2-fluoro-4-(trifluoromethyl)phenyl)-2-oxo-3,5,6,7,8,9-hexahydro-2H-5,8-epiminocyclohepta[d]pyrimidine-10-carboxamide] the IC50 was over 5000 nM.
Work on `CO[C@H]1C[C@@H](Oc2ccc(NC(=O)N3C4CCC3c3n[nH]c(=O)cc3C4)cc2Cl)C1` (mixture of isomers) [Compound 36, (±)-N-(3-Chloro-4-((1s,3S)-3-methoxycyclobutoxy)phenyl)-3-oxo-3,5,6,7,8,9-hexahydro-2H-6,9-epiminocyclohepta[c]pyridazine-10-carboxamide] yielded an IC50 of over 5000 nM.
